According to patent publication US10537563B2, “Methods for treating ocular disease using inhibitors of CSF-1R” (NOVARTIS AG, priority 2016, dated 2020):

Columns and labels:
Plk1 = Plk1 (Homo sapiens, UniProt P53350); experiment: In vitro kinase assay (Table 1); format: biochemical
cRaf = cRaf (Homo sapiens, UniProt P04049); experiment: In vitro kinase assay (Table 1); format: biochemical
BaF-Tel-KDR = target: T1, BaF-Tel-KDR (Homo sapiens, UniProt P35968); experiment: BaF3 proliferation assay; format: cell-based, murine
T1 construct: fused on or other part: P41212 (Transcription factor ETV6)
T1 sequence (P35968 834-1162 limits assumed, change not shown): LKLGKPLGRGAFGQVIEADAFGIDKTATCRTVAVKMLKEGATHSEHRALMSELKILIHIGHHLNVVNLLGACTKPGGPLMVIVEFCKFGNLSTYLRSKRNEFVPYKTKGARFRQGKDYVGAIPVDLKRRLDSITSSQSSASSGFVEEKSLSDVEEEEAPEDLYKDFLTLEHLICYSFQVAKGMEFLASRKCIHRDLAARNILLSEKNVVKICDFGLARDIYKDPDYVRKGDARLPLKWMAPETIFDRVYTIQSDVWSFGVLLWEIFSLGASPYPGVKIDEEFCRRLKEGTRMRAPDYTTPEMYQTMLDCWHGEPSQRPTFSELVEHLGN

BAF/Bcr-Abl-Luc/sACP = target: T2, BAF/Bcr-Abl-Luc/sACP (Homo sapiens, UniProt P00519); experiment: BaF3 proliferation assay; format: cell-based, murine
T2 construct: no part of the key; P11274 (Breakpoint cluster region protein)
T2 sequence (P00519 229-512 limits assumed, change not shown): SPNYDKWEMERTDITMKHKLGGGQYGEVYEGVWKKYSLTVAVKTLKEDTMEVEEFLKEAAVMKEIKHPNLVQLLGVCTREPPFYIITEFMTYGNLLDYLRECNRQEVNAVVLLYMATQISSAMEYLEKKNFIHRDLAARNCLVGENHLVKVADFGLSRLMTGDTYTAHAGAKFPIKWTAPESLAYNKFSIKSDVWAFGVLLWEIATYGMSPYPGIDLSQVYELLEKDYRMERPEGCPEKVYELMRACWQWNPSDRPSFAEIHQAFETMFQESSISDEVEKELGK

Jak2 = Jak2 (Homo sapiens, UniProt O60674); experiment: In vitro kinase assay (Table 1); format: biochemical
Chain of Jak2 (O60674 whole entry, species assumed): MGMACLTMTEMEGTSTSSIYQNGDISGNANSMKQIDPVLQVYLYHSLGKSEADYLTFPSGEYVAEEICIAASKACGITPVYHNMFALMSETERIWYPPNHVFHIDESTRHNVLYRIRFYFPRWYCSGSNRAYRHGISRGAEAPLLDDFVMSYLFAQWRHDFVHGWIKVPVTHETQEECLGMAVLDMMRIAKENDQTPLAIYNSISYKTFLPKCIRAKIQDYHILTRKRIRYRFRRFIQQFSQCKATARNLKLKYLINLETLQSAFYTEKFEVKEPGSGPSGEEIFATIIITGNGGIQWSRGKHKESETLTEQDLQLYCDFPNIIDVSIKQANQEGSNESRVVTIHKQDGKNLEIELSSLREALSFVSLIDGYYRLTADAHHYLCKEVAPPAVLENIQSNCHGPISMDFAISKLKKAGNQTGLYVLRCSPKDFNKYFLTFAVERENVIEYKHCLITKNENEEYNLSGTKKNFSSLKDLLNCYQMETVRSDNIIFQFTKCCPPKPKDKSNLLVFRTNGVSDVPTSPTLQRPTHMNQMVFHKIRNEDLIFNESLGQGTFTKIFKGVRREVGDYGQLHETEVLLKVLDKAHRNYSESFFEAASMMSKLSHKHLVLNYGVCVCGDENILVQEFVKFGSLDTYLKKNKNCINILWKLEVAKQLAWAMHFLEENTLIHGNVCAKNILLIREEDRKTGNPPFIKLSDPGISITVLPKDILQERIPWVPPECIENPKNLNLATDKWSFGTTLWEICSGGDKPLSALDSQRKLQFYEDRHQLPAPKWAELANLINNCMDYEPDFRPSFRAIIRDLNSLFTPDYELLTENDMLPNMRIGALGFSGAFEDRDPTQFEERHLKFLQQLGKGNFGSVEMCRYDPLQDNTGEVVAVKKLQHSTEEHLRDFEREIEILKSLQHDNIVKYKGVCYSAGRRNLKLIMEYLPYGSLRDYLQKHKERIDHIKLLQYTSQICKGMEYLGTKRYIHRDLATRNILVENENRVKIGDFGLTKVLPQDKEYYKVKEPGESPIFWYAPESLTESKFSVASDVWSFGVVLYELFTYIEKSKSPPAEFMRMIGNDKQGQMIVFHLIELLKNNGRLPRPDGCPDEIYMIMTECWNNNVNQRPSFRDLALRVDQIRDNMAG

Ck2alpha1 = Ck2alpha1 (Homo sapiens, UniProt P68400); experiment: In vitro kinase assay (Table 1); format: biochemical
Chain of Ck2alpha1 (P68400 whole entry): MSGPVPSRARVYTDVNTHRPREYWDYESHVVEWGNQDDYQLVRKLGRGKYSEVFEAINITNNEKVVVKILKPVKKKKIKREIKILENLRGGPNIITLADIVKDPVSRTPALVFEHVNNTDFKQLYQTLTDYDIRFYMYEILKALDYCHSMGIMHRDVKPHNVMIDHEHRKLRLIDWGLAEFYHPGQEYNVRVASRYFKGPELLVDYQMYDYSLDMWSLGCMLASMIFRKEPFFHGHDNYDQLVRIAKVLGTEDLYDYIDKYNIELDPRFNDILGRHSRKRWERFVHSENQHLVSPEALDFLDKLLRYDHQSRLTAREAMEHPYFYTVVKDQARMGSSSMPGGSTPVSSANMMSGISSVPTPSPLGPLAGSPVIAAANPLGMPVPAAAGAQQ

Alk = Alk (Homo sapiens, UniProt Q9UM73); experiment: In vitro kinase assay (Table 1); format: biochemical
Chk1 = Chk1 (Homo sapiens, UniProt O14757); experiment: In vitro kinase assay (Table 1); format: biochemical
Chain of Chk1 (O14757 whole entry, species assumed): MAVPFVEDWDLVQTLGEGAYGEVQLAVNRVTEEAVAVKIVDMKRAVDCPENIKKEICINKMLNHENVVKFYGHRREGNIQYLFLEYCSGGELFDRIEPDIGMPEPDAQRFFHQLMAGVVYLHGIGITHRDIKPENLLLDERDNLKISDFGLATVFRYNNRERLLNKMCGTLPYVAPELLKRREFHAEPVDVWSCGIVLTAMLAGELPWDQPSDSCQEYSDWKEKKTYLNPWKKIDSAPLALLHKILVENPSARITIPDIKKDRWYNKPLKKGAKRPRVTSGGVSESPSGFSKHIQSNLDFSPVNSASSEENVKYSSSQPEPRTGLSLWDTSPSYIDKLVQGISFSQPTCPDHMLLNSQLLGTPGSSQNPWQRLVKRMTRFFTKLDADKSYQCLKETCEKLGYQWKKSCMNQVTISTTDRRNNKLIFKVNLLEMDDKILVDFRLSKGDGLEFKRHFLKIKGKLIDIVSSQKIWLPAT

BAF/Tel-RET-Q1/sACP = target: T3, BAF/Tel-RET-Q1/sACP (Homo sapiens, UniProt P07949); experiment: BaF3 proliferation assay; format: cell-based, murine
T3 construct: fused on or other part: P41212 (Transcription factor ETV6)
T3 sequence (P07949 724-1016 limits assumed, change not shown): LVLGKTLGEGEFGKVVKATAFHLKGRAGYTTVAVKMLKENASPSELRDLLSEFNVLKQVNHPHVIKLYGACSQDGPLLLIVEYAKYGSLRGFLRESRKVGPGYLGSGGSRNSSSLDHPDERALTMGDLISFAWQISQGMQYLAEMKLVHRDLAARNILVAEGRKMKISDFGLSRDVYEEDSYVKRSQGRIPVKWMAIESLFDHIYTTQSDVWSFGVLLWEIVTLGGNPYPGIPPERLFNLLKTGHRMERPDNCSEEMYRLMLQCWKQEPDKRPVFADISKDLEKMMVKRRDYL

BAF/Tel-TIE2-1.2/sACP = target: T4, BAF/Tel-TIE2-1.2/sACP (Homo sapiens, UniProt Q02763); experiment: BaF3 proliferation assay; format: cell-based, murine
T4 construct: fused on or other part: P41212 (Transcription factor ETV6)

PAK1 = PAK1 (Homo sapiens, UniProt Q13153); experiment: In vitro kinase assay (Table 1); format: biochemical
Pim1 = Pim1 (Homo sapiens, UniProt P11309); experiment: In vitro kinase assay (Table 1); format: biochemical
Chain of Pim1 (P11309 whole entry, species assumed): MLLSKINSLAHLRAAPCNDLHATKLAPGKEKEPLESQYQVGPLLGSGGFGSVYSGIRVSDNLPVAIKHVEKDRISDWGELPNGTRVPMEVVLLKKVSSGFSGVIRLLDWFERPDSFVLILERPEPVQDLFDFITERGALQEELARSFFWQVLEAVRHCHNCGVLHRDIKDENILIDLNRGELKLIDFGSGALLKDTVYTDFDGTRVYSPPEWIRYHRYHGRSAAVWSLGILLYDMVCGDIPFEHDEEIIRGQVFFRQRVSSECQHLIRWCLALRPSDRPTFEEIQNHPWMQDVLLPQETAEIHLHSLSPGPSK

Fyn = Fyn (Homo sapiens, UniProt P06241); experiment: In vitro kinase assay (Table 1); format: biochemical
ZAP70 = ZAP70 (Homo sapiens, UniProt P43403); experiment: In vitro kinase assay (Table 1); format: biochemical
Chain of ZAP70 (P43403 whole entry, species assumed): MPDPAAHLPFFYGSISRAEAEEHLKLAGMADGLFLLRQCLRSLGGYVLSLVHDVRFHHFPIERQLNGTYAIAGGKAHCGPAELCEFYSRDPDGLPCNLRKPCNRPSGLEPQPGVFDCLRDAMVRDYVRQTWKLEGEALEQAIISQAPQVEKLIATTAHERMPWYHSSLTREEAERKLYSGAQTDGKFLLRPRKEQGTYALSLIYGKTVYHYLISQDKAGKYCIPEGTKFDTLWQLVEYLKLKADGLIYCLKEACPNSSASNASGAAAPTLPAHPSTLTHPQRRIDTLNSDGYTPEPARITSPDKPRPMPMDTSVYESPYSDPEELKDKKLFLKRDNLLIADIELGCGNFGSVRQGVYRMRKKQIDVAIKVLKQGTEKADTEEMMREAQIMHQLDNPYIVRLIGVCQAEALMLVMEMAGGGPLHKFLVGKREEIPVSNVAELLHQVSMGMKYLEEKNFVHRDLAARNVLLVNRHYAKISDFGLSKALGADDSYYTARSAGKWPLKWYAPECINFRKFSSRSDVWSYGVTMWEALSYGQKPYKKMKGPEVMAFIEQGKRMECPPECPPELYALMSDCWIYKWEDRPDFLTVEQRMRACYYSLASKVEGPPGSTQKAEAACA

BAF/Tel-FLT1-Q1/sACP = target: T5, BAF/Tel-FLT1-Q1/sACP (Homo sapiens, UniProt P17948); experiment: BaF3 proliferation assay; format: cell-based, murine
T5 construct: fused on or other part: P41212 (Transcription factor ETV6)
T5 sequence (P17948 827-1158 limits assumed, change not shown): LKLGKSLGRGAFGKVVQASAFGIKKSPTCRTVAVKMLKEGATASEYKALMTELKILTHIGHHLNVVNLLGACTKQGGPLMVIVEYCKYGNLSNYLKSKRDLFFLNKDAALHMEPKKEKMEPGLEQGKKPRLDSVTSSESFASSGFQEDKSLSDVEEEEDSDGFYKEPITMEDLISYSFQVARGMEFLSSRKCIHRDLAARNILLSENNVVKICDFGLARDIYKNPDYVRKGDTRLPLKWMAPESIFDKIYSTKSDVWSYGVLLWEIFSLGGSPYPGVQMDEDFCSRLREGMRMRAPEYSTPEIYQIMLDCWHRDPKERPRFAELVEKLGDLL

BaF3-Tel-INSR 1.2 = target: T6, BaF3-Tel-INSR 1.2 (Homo sapiens, UniProt P06213); experiment: BaF3 proliferation assay; format: cell-based, murine
T6 construct: fused on or other part: P41212 (Transcription factor ETV6)

Chain of cRaf (P04049 whole entry, species assumed): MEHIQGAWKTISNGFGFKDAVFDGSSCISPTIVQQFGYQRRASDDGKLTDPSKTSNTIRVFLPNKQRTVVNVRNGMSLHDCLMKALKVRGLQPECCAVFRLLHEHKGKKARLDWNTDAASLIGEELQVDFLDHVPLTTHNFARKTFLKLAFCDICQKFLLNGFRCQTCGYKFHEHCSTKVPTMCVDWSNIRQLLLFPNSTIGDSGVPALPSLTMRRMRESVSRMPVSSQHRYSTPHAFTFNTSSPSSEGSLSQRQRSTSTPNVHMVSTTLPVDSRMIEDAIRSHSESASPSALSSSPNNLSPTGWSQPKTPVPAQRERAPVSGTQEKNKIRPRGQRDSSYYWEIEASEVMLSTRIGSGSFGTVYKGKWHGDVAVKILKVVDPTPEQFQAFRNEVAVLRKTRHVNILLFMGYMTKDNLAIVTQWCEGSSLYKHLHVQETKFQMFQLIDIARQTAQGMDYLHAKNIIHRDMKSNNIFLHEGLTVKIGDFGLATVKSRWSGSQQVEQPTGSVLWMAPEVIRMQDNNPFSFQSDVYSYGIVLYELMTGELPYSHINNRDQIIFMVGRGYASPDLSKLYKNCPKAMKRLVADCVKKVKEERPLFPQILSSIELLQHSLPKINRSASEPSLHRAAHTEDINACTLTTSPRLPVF

CNC(=O)c1cc(Oc2ccc3nc(NC4CCCCC4O)sc3c2)ccn1 (stereo not shown) [Compound (I)]
IC50 (Plk1): > 25 µM
IC50 (cRaf): > 10 µM
EC50 (BaF-Tel-KDR): > 10 µM
EC50 (BAF/Bcr-Abl-Luc/sACP): > 10 µM
IC50 (Jak2): > 25 µM
IC50 (Ck2alpha1): > 10 µM
IC50 (Alk): > 10 µM
IC50 (Chk1): > 10 µM
EC50 (BAF/Tel-RET-Q1/sACP): > 10 µM
EC50 (BAF/Tel-TIE2-1.2/sACP): > 10 µM
IC50 (PAK1): > 25 µM
IC50 (Pim1): > 25 µM
IC50 (Fyn): > 10 µM
IC50 (ZAP70): > 10 µM
EC50 (BAF/Tel-FLT1-Q1/sACP): > 10 µM
EC50 (BaF3-Tel-INSR 1.2): > 10 µM
